Structures can show the parent of a compound that is named as a salt. Where two headings read alike, the source gives them in different places.
What was measured:
gastric acid secretion [1] = assay: Inhibition of gastric acid secretion (Total Acid Output) in rats; antisecretory activity; format: in vivo, Female Sprague-Dawley rats; conditions: for ED50: 1 h, read-out: ED50 (dose required to produce an average of 50% inhibition in Total Acid Output versus controls); for inhibition in vivo at 20 mg/kg: read-out: Percent Inhibition at 20 mg/kg id
Protocol: The compounds of the invention are useful for inhibition of gastric acid secretion as measured by the following test. Female Sprague-Dawley rats are fasted twenty-four hours before testing and are given water ad libidum while being kept in individual cages. On the day of testing, the rats are weighed and are selected so that the rats in each test weigh within a range of ± 20 grams.
Surgery is carried out under light ether anesthesia. As soon as the rat is anesthetized its teeth are removed and a mid-line incision is made on the abdomen about 11/2 inches in length and the stomach and duodenum are exposed. If at this point the stomach is filled with food or fecal material, the rat is discarded. If the condition of the stomach is acceptable, a purse string stitch is placed on the fundic portion of the stomach with a suture, taking care not to pierce any blood vessels in the area. A small nick is then made into the stomach in the center of the purse string, and a cannula, consisting of a small vinyl tube with a flange on one end, is put into the stomach, and the purse string stitch is closed tightly around the flange. The test compound is administered either intraduodonally (i.d.) immediately after surgery or orally (p.o.) one hour prior to surgery at doses generally ranging from about 0.25 to about 160 mg/kg in a volume of 0.5 ml/100 grams rat. Control rats receive the test vehicle, 0.5% aqueous methyl cellulose.
After the surgery and (in the case of i.d. administration) after administration of the test compound, the abdominal wall and skin are closed simultaneously with three or four 18 mm wound clips and a collecting tube is placed on the cannula. Each rat is then placed in a box in which a longitudinal slit has been made to allow the cannula to hand freely and to allow the rat to move about unencumbered. After the rat has been allowed to stabilize for thirty minutes, the collection tube on the cannula is discarded and replaced with a clean tube to receive the gastric juice. Collections are made at one hour. At the end of the study, the cannula is removed and the rat is sacrificed.
The sample of gastric contents collected is drained into a centrifuge tube and centrifuged to pack down the sediment. The volume is read and a 1 ml aliquot of the supernatant is put into a beaker containing 10 ml distilled water and is titrated to pH7 using 0.01 N sodium hydroxide. Results are determined for Volume, Titratable Acid and Total Acid Output, where Volume equals total ml of gastric juice minus sediment; Titratable Acid (meg/1) equals amount of 0.01 N sodium hydroxide needed to titrate the acid to pH7; and Total Acid Output equals Titratable Acid times Volume. Results are reported as the ED50 dose (mg/kg required to produce an average of 50% inhibition in Total Acid Output versus controls in all the animals tested for a particular compound) and as percent inhibition.
Following the test procedure previously described, the following compounds were tested for their antisecretory activity. The ED50 values for p.o. administration and the percent inhibition for i.d. administration at 20 mg/kg are tabulated below (R1 '=H except where noted): […]

gastric acid secretion [2] = assay: as above; format: in vivo, Female Sprague-Dawley rats; conditions: rat; for ED50: ip, intraperitoneally (footnote ++), read-out: ED50 (compound administered intraperitoneally)
[3] = rat, po, one hour prior to surgery

Compound	ED50 (gastric acid secretion [1]; [3])	inhibition in vivo at 20 mg/kg (gastric acid secretion [1]; rat, id, 20 mg/kg)	other results
N=CN1CCC(c2ccccc2)CC1 [R1=phenyl; A=H; R2=H; R3=H]	~40 mg/kg	77%	–
COc1ccc(CN=CN2CCC(C(c3ccccc3)c3ccccc3)CC2)cc1	< 40 mg/kg	63%	–
CCCCCCCCC=CCCCCCCCCN=CN1CCC(C(c2ccccc2)c2ccccc2)CC1	66 mg/kg	78.9%	–
CCCCCCCN=CN1CCC(C(c2ccccc2)c2ccccc2)CC1	11.6 mg/kg	72%	–
CCCCCCCCN=CN1CCC(C(c2ccccc2)c2ccc(C)cc2)CC1 (stereo not shown)	–	73%	–
C(=NCc1ccccc1)N1CCC(C(c2ccccc2)c2ccccc2)CC1 [R1=diphenylmethyl; A=H; R2=H; R3=benzyl]	3.3 mg/kg	100%	–
C(=NCCc1ccccc1)N1CCC(C(c2ccccc2)c2ccccc2)CC1	3.7 mg/kg	100%	–
N=CN1CCC(Cc2ccccc2)CC1 [R1=benzyl; A=H; R2=H; R3=H]	114 mg/kg	98%	–
N=CN1CCCC(C(c2ccccc2)c2ccccc2)C1 (stereo not shown)	–	68%	ED50 (gastric acid secretion [2]): 7 mg/kg
CCCCCCCCCCN=CN1CCC(C(c2ccccc2)c2ccccc2)CC1 [R1=diphenylmethyl; A=H; R2=H; R3=n-decyl]	8.2 mg/kg	79%	–
COc1ccc(C(c2ccccc2)C2CCN(C=N)CC2)cc1 (stereo not shown)	12.1 mg/kg	100%	–
CCCCN=CN1CCC(C(c2ccccc2)c2ccccc2)CC1 [R1=diphenylmethyl; A=H; R2=H; R3=n-butyl]	8.6 mg/kg	100%	–
Cl.N=CN1CCC(C(c2ccccc2)c2ccccc2)CC1.O [R1=diphenylmethyl; A=H; R2=H; R3=H, 4-Diphenylmethyl-1-iminomethylpiperidine hydrochloride hydrate]	0.7 mg/kg	100%	–
CCCCCCCCN=CN1CCC(C(O)(c2ccccc2)c2ccccc2)CC1	–	–	ED50 (gastric acid secretion [2]): 5 mg/kg
C(=NC12CC3CC(CC(C3)C1)C2)N1CCC(C(c2ccccc2)c2ccccc2)CC1	37 mg/kg	0%	% inhibition at 80 mg/kg i.d. (gastric acid secretion [2]; i.d., 80 mg/kg (footnote)): 52%
CCC(=N)N1CCC(C(c2ccccc2)c2ccccc2)CC1 [R1=diphenylmethyl; A=H; R2=ethyl; R3=H]	> 40 mg/kg	75%	–
N=CN1CCC(C(c2ccccc2)c2ccc(Cl)cc2)CC1 (stereo not shown)	2.32 mg/kg	100%	–
CCCCCCCCN=C(C)N1CCC(C(c2ccccc2)c2ccccc2)CC1.[O-][Cl+3]([O-])([O-])O [4-(Diphenylmethyl)-1-[1-(octylimino)ethyl]-piperidine Monoperchlorate]	–	–	ED50 (gastric acid secretion [1]; Rattus norvegicus, po): 14 mg/kg; inhibition in vivo at 20 mg/kg (gastric acid secretion [1]; Rattus norvegicus): 98%

Compound	ED50 (gastric acid secretion [1]; [3])	inhibition in vivo at 20 mg/kg (gastric acid secretion [1]; rat, id, 20 mg/kg)	other results
CC(C)N=CN1CCC(C(c2ccccc2)c2ccccc2)CC1	9.8 mg/kg	96%	–
Clc1ccc(CN=CN2CCC(C(c3ccccc3)c3ccccc3)CC2)cc1	20.7 mg/kg	94%	–
C=CCN=CN1CCC(C(c2ccccc2)c2ccccc2)CC1	10.2 mg/kg	100%	–
C#CCN=CN1CCC(C(c2ccccc2)c2ccccc2)CC1	6.07 mg/kg	100%	–
CCCCCCCCN=CN1CCC(C2c3ccccc3-c3ccccc32)CC1 [R1=9-fluorenyl; A=H; R2=H; R3=n-octyl]	15.9 mg/kg	48%	–
CCCCCCCCN=CN1CCC(C(c2ccccc2)c2ccc(OC)cc2)CC1 (stereo not shown) [4-[(4-methoxyphenyl)phenylmethyl]-1-[(octylimino)methyl]piperidine]	16.9 mg/kg	62%	–
C(=NCCCCc1ccccc1)N1CCC(C(c2ccccc2)c2ccccc2)CC1 [R1=diphenylmethyl; A=H; R2=H; R3=drawing 19]	8.1 mg/kg	82%	–
CCCCCCCCCN=CN1CCC(C(c2ccccc2)c2ccccc2)CC1 [R1=diphenylmethyl; A=H; R2=H; R3=n-nonyl]	19.6 mg/kg	93%	–
CCCCCCCCCCCCN=CN1CCC(C(c2ccccc2)c2ccccc2)CC1.O=C(O)/C=C/C(=O)O [4-(Diphenylmethyl)-1-N-(n-dodecyliminomethyl)piperidine fumarate]	53 mg/kg	80%	–
N=CN1CCCCC1 [N-iminomethylpiperidine]	–	0%	inhibition of gastric acid secretion at 80 mg/kg i.d. (gastric acid secretion [2]; i.d., 80 mg/kg): no inhibition whatsoever; inhibition of gastric acid secretion at doses four times or greater than those at which the subject compounds are active (gastric acid secretion [1]; doses four times or greater than active doses of subject compounds): does not inhibit gastric acid secretion; inhibition of gastric acid secretion at a dose of 100 mg/kg p.o. (gastric acid secretion [1]; rat, p.o., 100 mg/kg): no inhibition whatsoever; ED50 (mg/kg po): result in words (gastric acid secretion [1]; rat, po, at 80 (mg/kg)): Inactive
CCCCCCCCN=CN1CCC(C(c2ccccc2)c2ccc(O)cc2)CC1 (stereo not shown) [4-[(4-hydroxyphenyl)phenylmethyl]-1-[(octylimino)methyl]piperidine]	–	–	ED50 (gastric acid secretion [2]): 2 mg/kg
CCCCCCCCN=CN1CCC(C(c2ccccc2)c2ccccc2)CC1.O.O=C(O)/C=C/C(=O)O [R1=diphenylmethyl; A=H; R2=H; R3=n-octyl, 4-(Diphenylmethyl)-1-[(octylimino)methyl]piperidine Fumarate Hydrate]	9.8 mg/kg	64%	–
CCCCCCCCN=CN1CCCC(C(c2ccccc2)c2ccccc2)C1 (stereo not shown)	18.3 mg/kg	92.2%	–
CCCCCCN=CN1CCC(C(c2ccccc2)c2ccccc2)CC1 [R1=diphenylmethyl; A=H; R2=H; R3=n-hexyl]	8.7 mg/kg	96%	–
CCCCCCCCN=CN1CCC(=C(c2ccccc2)c2ccccc2)CC1 [R1,A=benzhydrylidene; R2=H; R3=n-octyl]	0.625 mg/kg	68.2%	–
CC(=O)C1(c2ccccc2)CCN(C=N)CC1 [R1=phenyl; A=drawing 20; R2=H; R3=H]	–	–	inhibition in vivo at 20 mg/kg (gastric acid secretion [1]; Rattus norvegicus): 71%
CCN=CN1CCC(C(c2ccccc2)c2ccccc2)CC1 [R1=diphenylmethyl; A=H; R2=H; R3=ethyl, 4-(Diphenylmethyl)-1-N-ethyliminomethyl-piperidine oxalate hemihydrate]	4.3 mg/kg	100%	–
